The assay concerns the target Paired box protein Pax-2 (Homo sapiens, UniProt Q02962). In words: Inhibition of pax2 (unknown origin) in human SK-OV-3 cells measured after 24 hrs by immunoblotting analysis. Background: Immunoblotting shows a protein as a band on a membrane.

pIC50: −log10 of the molar value.

Paired box protein Pax-2, sequence (Q02962 whole entry): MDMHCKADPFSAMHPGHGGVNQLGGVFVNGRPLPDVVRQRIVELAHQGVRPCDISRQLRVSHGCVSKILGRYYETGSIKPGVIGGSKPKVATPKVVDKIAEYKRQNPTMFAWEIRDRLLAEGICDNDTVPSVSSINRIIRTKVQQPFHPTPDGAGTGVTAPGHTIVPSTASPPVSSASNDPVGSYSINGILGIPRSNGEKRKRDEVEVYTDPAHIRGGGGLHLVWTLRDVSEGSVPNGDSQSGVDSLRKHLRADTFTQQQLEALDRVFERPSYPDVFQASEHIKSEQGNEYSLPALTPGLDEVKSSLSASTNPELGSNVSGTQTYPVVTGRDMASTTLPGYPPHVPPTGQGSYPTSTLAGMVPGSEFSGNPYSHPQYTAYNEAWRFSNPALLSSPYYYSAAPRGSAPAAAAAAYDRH

Compound `Cc1ccc(C)c(N2CCN(c3c(C)c(C)nc4ncnn34)CC2)c1` showed a negative-log IC50 (pIC50) of 5.82.

The term pIC50 denotes the negative decadic logarithm of the IC50, by convention in mol/L. Low values mean a large IC50, high ones a small IC50.

The record behind these values is BindingDB's records for doi:10.1016/j.ejmech.2023.115101 (n/a, 2023).
